# Test results taken from US8809344B2, “Compounds, compositions, and methods for control of hepatitis C viral infections” (priority 2008, dated 2014).
# pEC50: −log10 of the molar value.
# Legend:
# [1] = test system: genotype 1b (Con1 strain) replicon with NS4B F1809V mutation; assay: F1809V mutant reporter replicon IVT RNA in Huh7.5 cells; format: cell-based; settings: Hepatitis C virus
# From the text: To identify nucleotide changes that confer resistance to 80978, replicon RNA was reverse transcribed and amplified from total RNA extracted from 80978-resistant and control Clone A cells. […] One silent mutation at amino acid 1771 was also observed. Each mutation was introduced independently into a stable genotype 1b (Con1 strain) subgenomic reporter replicon plasmid via site-directed mutagenesis. […] The sequence of the wild type NS4B encoding sequence is provided as SEQ ID NO:1, the sequence of the mutated NS4B nucleotide sequence encoding the F1809V mutation is provided as SEQ ID NO:3, and the sequence of the mutated NS4B nucleotide sequence encoding the F1809L mutation is provided as SEQ ID NO:5. The sequence of the wild type NS4B protein is provided as SEQ ID NO:2, the sequence of the mutated NS4B protein with the F1809V mutation is provided as SEQ ID NO:4, and the sequence of the mutated NS4B nucleotide sequence encoding the F1809L mutation is provided as SEQ ID NO:6. […] A differential response was observed between cells electroporated with different replicon RNAs.
# [2] = test system: genotype 1b (Con1 strain) subgenomic replicon in 80978-resistant Clone A cells; assay: 80978-resistant Clone A cells, HCV RNA by quantitative RT-PCR; format: cell-based; settings: Hepatitis C virus, 72 h
# Description: In an effort to gain insight into the target of 80978, Clone A cells were selected for resistance to 80978. Clone A cells are a human hepatoma cell line that contains a stable genotype 1b (Con1 strain) subgenomic replicon. Cells were cultured for 12 days in medium containing 10 μM 80978 and 1 mg/ml Geneticin™ (Invitrogen). Medium was changed every 3-4 days to replenish compound, and cells were split as needed to maintain subconfluent cultures. After 12 days of growth in the presence of 10 μM 80978, the concentration of 80978 was increased to 20 μM and cultured for an additional 19 days. Control Clone A cells were grown in parallel in the presence of diluent only. After this culture period, cells were evaluated for response to 80978.
# Control cells and cells that had been cultured in the presence of 80978 were treated in triplicate with 3-fold serial dilutions of compound for 72 hours. At the end of this incubation period, total RNA was extracted, and HCV RNA levels were measured by quantitative RT-PCR using primers that recognize the 3′NTR.
structure (smiles),measurement,setting,value
"O=C(NCc1cccs1)c1nn2c(c1Cl)N[C@H](c1ccco1)C[C@@H]2C(F)(F)F (single isomer, unassigned) [Compound 80978]",pEC50,[1],< 4.65
same,pEC50,[2],< 4.60
